Patent US8278345B2, “Inhibitors of glutaminyl cyclase” (Probiodrug AG, priority 2006, dated 2012)
pIC50: −log10 of the molar value.

biological target: hQC (Homo sapiens, UniProt Q16769); experiment: Inhibitor assay for glutaminyl cyclase activity (fluorometric, H-Gln-βNA / H-Gln-AMC); type: biochemical; conditions: compound from preparative synthesis, purified; read-out: IC50 hQC
Procedure: All measurements were performed with a BioAssay Reader HTS-7000Plus for microplates (Perkin Elmer) at 30° C. QC activity was evaluated fluorometrically using H-Gln-βNA. The samples consisted of 0.2 mM fluorogenic substrate, 0.25 U pyroglutamyl aminopeptidase (Unizyme, Hørsholm, Denmark) in 0.2 M Tris/HCl, pH 8.0 containing 20 mM EDTA and an appropriately diluted aliquot of QC in a final volume of 250 μl. Excitation/emission wavelengths were 320/410 nm. The assay reactions were initiated by addition of glutaminyl cyclase. QC activity was determined from a standard curve of β-naphthylamine under assay conditions. One unit is defined as the amount of QC catalyzing the formation of 1 μmol pGlu-βNA from H-Gln-βNA per minute under the described conditions.
In a second fluorometric assay, QC activity was determined using H-Gln-AMC as substrate. Reactions were carried out at 30° C. utilizing the NOVOStar reader for microplates (BMG labtechnologies). The samples consisted of varying concentrations of the fluorogenic substrate, 0.1 U pyroglutamyl aminopeptidase (Qiagen) in 0.05 M Tris/HCl, pH 8.0 containing 5 mM EDTA and an appropriately diluted aliquot of QC in a final volume of 250 μl. Excitation/emission wavelengths were 380/460 nm. The assay reactions were initiated by addition of glutaminyl cyclase. QC activity was determined from a standard curve of 7-amino-4-methylcoumarin under assay conditions. The kinetic data were evaluated using GraFit sofware.
For inhibitor testing, the sample composition was the same as described above, except of the putative inhibitory compound added. For a rapid test of QC-inhibition, samples contained 4 mM of the respective inhibitor and a substrate concentration at 1 KM. For detailed investigations of the inhibition and determination of Ki-values, influence of the inhibitor on the auxiliary enzymes was investigated first. In every case, there was no influence on either enzyme detected, thus enabling the reliable determination of the QC inhibition. The inhibitory constant was evaluated by fitting the set of progress curves to the general equation for competitive inhibition using GraFit software.

hQC, sequence (Q16769 29-361): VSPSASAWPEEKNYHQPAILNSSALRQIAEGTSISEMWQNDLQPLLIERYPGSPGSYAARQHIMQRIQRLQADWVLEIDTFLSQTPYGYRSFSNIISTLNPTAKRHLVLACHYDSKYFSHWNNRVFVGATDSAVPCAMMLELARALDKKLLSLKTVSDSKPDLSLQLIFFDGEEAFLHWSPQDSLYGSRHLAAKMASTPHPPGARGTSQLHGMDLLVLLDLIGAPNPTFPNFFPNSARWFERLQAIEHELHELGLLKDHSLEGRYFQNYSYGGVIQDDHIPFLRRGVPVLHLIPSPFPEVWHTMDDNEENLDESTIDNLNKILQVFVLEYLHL

pIC50	Structure (SMILES)
5.72	Cc1ccc(C2C(c3ccccc3)=C(O)C(=O)N2CCCn2ccnc2)cc1 (stereo not drawn) [Compound 77, 3-Hydroxy-1-(3-imidazol-1-yl-propyl)-4-phenyl-5-p-tolyl-1,5-dihydro-pyrrol-2-one]
6.19	O=C1C(O)=C(c2ccccc2)C(c2ccc3[nH]ccc3c2)N1CCCn1ccnc1 (stereo not drawn) [Compound 85, 3-Hydroxy-1-(3-imidazol-1-yl-propyl)-5-(1H-indol-5-yl)-4-phenyl-1,5-dihydro-pyrrol-2-one]
5.91	COc1ccc(C2C(c3ccccc3)=C(O)C(=O)N2CCCn2ccnc2)cc1 (stereo not drawn) [Compound 86, 3-Hydroxy-1-(3-imidazol-1-yl-propyl)-5-(4-methoxy-phenyl)-4-phenyl-1,5-dihydro-pyrrol-2-one]
5.78	O=C1C(O)=C(c2ccccc2)C(C2CCC=CO2)N1CCCn1ccnc1 (stereo not drawn) [Compound 93, 5-(3,4-Dihydro-2H-pyran-2-yl)-3-hydroxy-1-(3-imidazol-1-yl-propyl)-4-phenyl-1,5-dihydro-pyrrol-2-one]

same assay, conditions: read-out: IC50

pIC50	Structure (SMILES)
5.66	CC(C)C1=C(O)C(=O)N(CCCn2ccnc2)C1C1CCC=CO1 (stereo not drawn) [Compound 66, 5-(3,4-Dihydro-2H-pyran-2-yl)-3-hydroxy-1-(3-imidazol-1-yl-propyl)-4-isopropyl-1,5-dihydro-pyrrol-2-one]
5.66	CC(C)C1=C(O)C(=O)N(CCCn2ccnc2)C1C1=CCCCC1 (stereo not drawn) [Compound 67, 5-Cyclohex-1-enyl-3-hydroxy-1-(3-imidazol-1-yl-propyl)-4-isopropyl-1,5-dihydro-pyrrol-2-one]
7.40	CC(C)C1=C(O)C(=O)N(CCCn2ccnc2)C1Cc1ccccc1 (stereo not drawn) [Compound 68, 5-Benzyl-3-hydroxy-1-(3-imidazol-1-yl-propyl)-4-isopropyl-1,5-dihydro-pyrrol-2-one]
5.31	CC(C)C1=C(O)C(=O)N(CCCn2ccnc2)C1c1ccccn1 (stereo not drawn) [Compound 69, 3-Hydroxy-1-(3-imidazol-1-yl-propyl)-4-isopropyl-5-pyridin-2-yl-1,5-dihydro-pyrrol-2-one]
5.31	CC(C)C1=C(O)C(=O)N(CCCn2ccnc2)C1c1ccncc1 (stereo not drawn) [Compound 70, 3-Hydroxy-1-(3-imidazol-1-yl-propyl)-4-isopropyl-5-pyridin-4-yl-1,5-dihydro-pyrrol-2-one]
5.40	CC(C)C1=C(O)C(=O)N(CCCn2ccnc2)C1c1cccs1 (stereo not drawn) [Compound 71, 3-Hydroxy-1-(3-imidazol-1-yl-propyl)-4-isopropyl-5-thiophen-2-yl-1,5-dihydro-pyrrol-2-one]
5.66	CC(C)C1=C(O)C(=O)N(CCCn2ccnc2)C1c1ccco1 (stereo not drawn) [Compound 72, 5-Furan-2-yl-3-hydroxy-1-(3-imidazol-1-yl-propyl)-4-isopropyl-1,5-dihydro-pyrrol-2-one]
5.51	CC(C)C1=C(O)C(=O)N(CCCn2ccnc2)C1c1cccc(Cl)c1 (stereo not drawn) [Compound 73, 5-(3-Chloro-phenyl)-3-hydroxy-1-(3-imidazol-1-yl-propyl)-4-isopropyl-1,5-dihydro-pyrrol-2-one]
5.66	CC(C)C1=C(O)C(=O)N(CCCn2ccnc2)C1c1ccccc1F (stereo not drawn) [Compound 74, 5-(2-Fluoro-phenyl)-3-hydroxy-1-(3-imidazol-1-yl-propyl)-4-isopropyl-1,5-dihydro-pyrrol-2-one]
5.31	CC(C)C1=C(O)C(=O)N(CCCn2ccnc2)C1c1cccc(O)c1 (stereo not drawn) [Compound 75, 3-Hydroxy-5-(3-hydroxy-phenyl)-1-(3-imidazol-1-yl-propyl)-4-isopropyl-1,5-dihydro-pyrrol-2-one]
7.40	O=C1C(O)=C(c2ccccc2)C(c2cc(Cl)cc(Cl)c2O)N1CCCn1ccnc1 (stereo not drawn) [Compound 76, 5-(3,5-Dichloro-2-hydroxy-phenyl)-3-hydroxy-1-(3-imidazol-1-yl-propyl)-4-phenyl-1,5-dihydro-pyrrol-2-one]
7.40	Cc1ccc(C2C(c3ccccc3)=C(O)C(=O)N2CCCn2ccnc2)cc1 (stereo not drawn) [Compound 77, 3-Hydroxy-1-(3-imidazol-1-yl-propyl)-4-phenyl-5-p-tolyl-1,5-dihydro-pyrrol-2-one]
7.40	CCC/C=C/C1C(c2ccccc2)=C(O)C(=O)N1CCCn1ccnc1 (stereo not drawn) [Compound 78, 3-Hydroxy-1-(3-imidazol-1-yl-propyl)-5-(pent-1-enyl)-4-phenyl-1,5-dihydro-pyrrol-2-one]
6.40	CCC(C)C1C(c2ccccc2)=C(O)C(=O)N1CCCn1ccnc1 (stereo not drawn) [Compound 79, 5-sec-Butyl-3-hydroxy-1-(3-imidazol-1-yl-propyl)-4-phenyl-1,5-dihydro-pyrrol-2-one]
6.40	CCCC1C(c2ccccc2)=C(O)C(=O)N1CCCn1ccnc1 (stereo not drawn) [Compound 80, 3-Hydroxy-1-(3-imidazol-1-yl-propyl)-4-phenyl-5-propyl-1,5-dihydro-pyrrol-2-one]
5.51	O=C1C(O)=C(c2ccccc2)C(c2cc[nH]n2)N1CCCn1ccnc1 (stereo not drawn) [Compound 81, 3-Hydroxy-1-(3-imidazol-1-yl-propyl)-4-phenyl-5-(1H-pyrazol-3-yl)-1,5-dihydro-pyrrol-2-one]
5.51	O=C1C(O)=C(c2ccccc2)C(C(O)CO)N1CCCn1ccnc1 (stereo not drawn) [Compound 82, 5-(1,2-Dihydroxy-ethyl)-3-hydroxy-1-(3-imidazol-1-yl-propyl)-4-phenyl-1,5-dihydro-pyrrol-2-one]
5.17	CC(C)/C=C/C1C(c2ccccc2)=C(O)C(=O)N1CCCn1ccnc1 (stereo not drawn) [Compound 83, 3-Hydroxy-1-(3-imidazol-1-yl-propyl)-5-(3-methyl-but-1-enyl)-4-phenyl-1,5-dihydro-pyrrol-2-one]

pIC50	Structure (SMILES)
5.66	Cc1ccc(C2C(c3ccccc3)=C(O)C(=O)N2CCCn2ccnc2)o1 (stereo not drawn) [Compound 84, 3-Hydroxy-1-(3-imidazol-1-yl-propyl)-5-(5-methyl-furan-2-yl)-4-phenyl-1,5-dihydro-pyrrol-2-one]
7.40	O=C1C(O)=C(c2ccccc2)C(c2ccc3[nH]ccc3c2)N1CCCn1ccnc1 (stereo not drawn) [Compound 85, 3-Hydroxy-1-(3-imidazol-1-yl-propyl)-5-(1H-indol-5-yl)-4-phenyl-1,5-dihydro-pyrrol-2-one]
7.40	COc1ccc(C2C(c3ccccc3)=C(O)C(=O)N2CCCn2ccnc2)cc1 (stereo not drawn) [Compound 86, 3-Hydroxy-1-(3-imidazol-1-yl-propyl)-5-(4-methoxy-phenyl)-4-phenyl-1,5-dihydro-pyrrol-2-one]
5.51	O=C1C(O)=C(c2ccccc2)C(c2ccccc2O)N1CCCn1ccnc1 (stereo not drawn) [Compound 87, 3-Hydroxy-5-(2-hydroxy-phenyl)-1-(3-imidazol-1-yl-propyl)-4-phenyl-1,5-dihydro-pyrrol-2-one]
5.89	Cc1ccc(C2C(c3ccccc3)=C(O)C(=O)N2CCCn2ccnc2)cc1C (stereo not drawn) [Compound 88, 5-(3,4-Dimethyl-phenyl)-3-hydroxy-1-(3-imidazol-1-yl-propyl)-4-phenyl-1,5-dihydro-pyrrol-2-one]
7.40	CCCCCC1C(c2ccccc2)=C(O)C(=O)N1CCCn1ccnc1 (stereo not drawn) [Compound 89, 3-Hydroxy-1-(3-imidazol-1-yl-propyl)-5-pentyl-4-phenyl-1,5-dihydro-pyrrol-2-one]
5.89	CC1C(c2ccccc2)=C(O)C(=O)N1CCCn1ccnc1 (stereo not drawn) [Compound 90, 3-Hydroxy-1-(3-imidazol-1-yl-propyl)-5-methyl-4-phenyl-1,5-dihydro-pyrrol-2-one]
5.89	O=C1C(O)=C(c2ccccc2)C(c2ccc(CO)o2)N1CCCn1ccnc1 (stereo not drawn) [Compound 91, 3-Hydroxy-5-(5-hydroxymethyl-furan-2-yl)-1-(3-imidazol-1-yl-propyl)-4-phenyl-1,5-dihydro-pyrrol-2-one]
5.51	O=C1C(O)=C(c2ccccc2)C(c2ccccc2)N1CCCn1ccnc1 (stereo not drawn) [Compound 92, 3-Hydroxy-1-(3-imidazol-1-yl-propyl)-4,5-diphenyl-1,5-dihydro-pyrrol-2-one]
7.40	O=C1C(O)=C(c2ccccc2)C(C2CCC=CO2)N1CCCn1ccnc1 (stereo not drawn) [Compound 93, 5-(3,4-Dihydro-2H-pyran-2-yl)-3-hydroxy-1-(3-imidazol-1-yl-propyl)-4-phenyl-1,5-dihydro-pyrrol-2-one]
5.31	O=C1C(O)=C(c2ccccc2)C(C2=CCCCC2)N1CCCn1ccnc1 (stereo not drawn) [Compound 94, 5-Cyclohex-1-enyl-3-hydroxy-1-(3-imidazol-1-yl-propyl)-4-phenyl-1,5-dihydro-pyrrol-2-one]
7.40	Cc1ccc2c(C3C(c4ccccc4)=C(O)C(=O)N3CCCn3ccnc3)c[nH]c2c1 (stereo not drawn) [Compound 95, 3-Hydroxy-1-(3-imidazol-1-yl-propyl)-5-(6-methyl-1H-indol-3-yl)-4-phenyl-1,5-dihydro-pyrrol-2-one]
6.40	O=C1C(O)=C(c2ccccc2)C(C(F)(F)F)N1CCCn1ccnc1 (stereo not drawn) [Compound 96, 3-Hydroxy-1-(3-imidazol-1-yl-propyl)-4-phenyl-5-trifluoromethyl-1,5-dihydro-pyrrol-2-one]
7.40	O=C1C(O)=C(c2ccccc2)C(c2c[nH]c3ccccc23)N1CCCn1ccnc1 (stereo not drawn) [Compound 97, 3-Hydroxy-1-(3-imidazol-1-yl-propyl)-5-(1H-indol-3-yl)-4-phenyl-1,5-dihydro-pyrrol-2-one]
5.89	O=C1C(O)=C(c2ccccc2)C(c2ncc[nH]2)N1CCCn1ccnc1 (stereo not drawn) [Compound 98, 3-Hydroxy-5-(1H-imidazol-2-yl)-1-(3-imidazol-1-yl-propyl)-4-phenyl-1,5-dihydro-pyrrol-2-one]
7.40	O=C1C(O)=C(c2ccccc2)C(Cc2ccccc2)N1CCCn1ccnc1 (stereo not drawn) [Compound 99, 5-Benzyl-3-hydroxy-1-(3-imidazol-1-yl-propyl)-4-phenyl-1,5-dihydro-pyrrol-2-one]
6.40	O=C1C(O)=C(c2ccccc2)C(c2c(O)ccc3ccccc23)N1CCCn1ccnc1 (stereo not drawn) [Compound 100, 3-Hydroxy-5-(2-hydroxy-naphthalen-1-yl)-1-(3-imidazol-1-yl-propyl)-4-phenyl-1,5-dihydro-pyrrol-2-one]
